Series [1] deals with Pin1 in BxPC3 cells (Homo sapiens, UniProt Q13526). Nature of the series: Pin1 degradation by western blot in BxPC3 cells. The class given is cell-based. The arrangement: endogenous in cells; host or cells: BxPC3, MIA PaCa-2. Particulars: BxPC3, 0.5-15 μM for 24 h, Pin1 relative to β-actin. As to the method:
To ascertain that the plasma-stable agent 164B8 retained its ability to induce Pin1 degradation in cells, we tested it in three pancreatic cancer cell lines—human BxPC3 and MIA PaCa-2, and the mouse pancreatic cancer cell line KPC—using western blot analysis (Figure 2).
Figure 2 Degradation of Pin1 in different cell lines in response to 164B8 treatment BxPC3, MIA PaCa-2, and KPC were each treated with 0.1% DMSO and concentrations of 164B8 ranging between 0.5 and 15 μM for 24 h, and Pin1 levels were quantified with respect to β-actin using a specific anti-Pin1 antibody and western blotting (uncropped blots are reported in Figure S6).
At the end of the treatments, cells were lysed with a lysis buffer containing 20 mM Tris (pH 7.4), 1% Triton X-100, 5 mM EDTA, 0.1% sodium dodecyl sulfate (SDS), 1% IGEPAL, 0.5% sodium deoxycholate, 120 mM NaCl, and a protease inhibitor cocktail and PhosSTOP (Sigma-Aldrich). Lysates were then centrifuged at 16,000 × g for 20 min at 4°C, and the supernatants were collected. Protein concentrations were determined using the Pierce BCA Protein Assay Kit (Thermo Fisher Scientific) according to the manufacturer’s protocol. For traditional western blotting (Figure 2), samples were loaded onto precast Bis-Tris gels and subsequently transferred onto PVDF membranes. […]
For orientation: Immunoblotting shows a protein as a band on a membrane.

The target of series [2] is T1, human Pin1 (Homo sapiens, UniProt Q13526).
T1 construct: Residues 1–163 of human Pin1 were expressed with a thrombin cleavage site and a HisTag at the N-terminus; 6xHis (N); thrombin cleavage site (N); made in house; host or cells: E. coli
T1 sequence (Q13526 whole entry, the tested form may be a part): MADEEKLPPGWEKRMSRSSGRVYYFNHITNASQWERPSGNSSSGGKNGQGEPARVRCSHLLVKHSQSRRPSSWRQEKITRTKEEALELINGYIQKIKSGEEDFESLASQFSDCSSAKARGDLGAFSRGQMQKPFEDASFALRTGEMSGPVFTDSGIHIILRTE
Put plainly: Denaturation thermal shift measurements (SYPRO Orange). The class given is binding. Particulars: thermal denaturation shift of Pin1, 20 μM protein, protein:ligand 1:2, 50 mM phosphate pH 7.5, 150 mM NaCl, 3% DMSO, 10-95°C, quadruplicates. As to the method:
To assess the ability of our agents to bind and inhibit Pin1, we developed a robust biochemical assay based on the dissociation-enhanced lanthanide fluorescent immunoassay (DELFIA) platform. In our implementation, we used a biotinylated form of a known Pin1-binding peptide (D-peptide) to monitor the ability of test agents to inhibit the interaction between Pin1 and the D-peptide at various incubation times, as described previously.[32] […] In addition, as mentioned above and reported recently, we tested the ability of the agents to reduce Pin1 thermal stability in vitro by thermal denaturation measurements.[32] […] Pin1 unfolding causes a nonspecific interaction between the water-quenched fluorescent dye and the protein’s exposed hydrophobic residues, resulting in increased fluorescence. A shift in the thermal denaturation temperature between the free and bound protein is interpreted as a stabilization or destabilization event induced by the test ligand. […] To further assess whether these agents could be suitable for in vivo efficacy studies, we also performed stability assays in aqueous buffer and in plasma from various species (Table S2, Figure S2). We tested the stability of our agents in plasma from multiple mouse strains as well as in human plasma (Figure S2), given the peptide nature of the compounds. […]

For series [3], the system named is MIA PaCa-2 cells. The class given is cell-based, human. The note with it: 72 h. On the procedure: The effect of Pin1 degradation by 164B8 on cell viability was assessed using live-cell analysis (IncuCyte S3). […] Furthermore, to evaluate the acute single-dose toxicity of 164B8 in vivo, CD-1 immune-competent mice were exposed to increasing doses of 164B8. […] Therefore, a maximum tolerated dose was not reached (Figure S12).
Figure S11: Mia PaCa-2 and KPC cells were treated with different doses of 164B8, and the
IncuCyte S3 live-cell analysis system was used to monitor the agent’s activity every 3 hours for
(1 picture or pasted object on this page, not shown here)

A short description of series [4]: Stability in aqueous buffer (1x PBS). Type of series: physicochemical. The note with it: 1x phosphate buffered saline, 1 μg/mL, 37°C, up to 6 h, acetonitrile quench, LC-MS/MS. On the procedure:
A solution of a Pin1 inhibitor was spiked into blank plasma at 1 μg/mL in various solutions, including an aqueous buffer (1× phosphate-buffered saline; Fisher Scientific, Fair Lawn, NJ), human plasma (Innovative Research Inc., Novi, MI), wild-type mouse plasma (Innovative Research Inc., Novi, MI), plasma form esterase-deficient mice (City of Hope, Duarte, CA), and plasma from Black 6-Cg mice (City of Hope, Duarte, CA).
The spiked plasma samples were incubated at 37°C for up to 6 h. At each designated time point, a 20 μL aliquot of the incubation sample was removed and quenched in 100 μL of acetonitrile. At the end of the incubation, the quenched samples were vortexed and centrifuged for 10 min at 4°C and 20,000 × g. The resulting supernatant was reconstituted and analyzed by LC-MS/MS.
Table S2. Stability half-life of agents reported in Table 1 after incubation at 37 °C in various media. Acq represents aqueous buffer composed of 1x phosphate buffered saline (Fisher Scientific, Fair Lawn, NJ); human represents human plasma (Innovative Research Inc., Novi, MI); mouse wt represents wild type mouse plasma (Innovative Research Inc., Novi, MI); mouse ES1e represents plasma form esterase deficient mice (City of Hope, Duarte, CA); mouse B6-Cg represents plasma from black 6-Cg mice (City of Hope, Duarte, CA). See Figure 1 for the chemical structures of these compounds.
Compound Acq Human Mouse Mouse ES1e Mouse

Structures are written as SMILES. Non-standard residues stand in square brackets, D forms with d. Residues, ends and D or L forms follow the SMILES beside them. *: point of attachment. Trp(6-Cl) = N[C@@H](Cc1c[nH]c2cc(Cl)ccc12)C(=O)O; Pip = O=C(O)[C@@H]1CCCCN1; ClAc = O=C(CCl)* Where only a bound is given, the exact number is not on record here.

Sequence of Pin1 in BxPC3 cells (Q13526 whole entry): as the sequence (Q13526 whole entry, the tested form may be a part) above

Turning to `CNC(=O)[C@H](Cc1c[nH]c2ccccc12)NC(=O)[C@@H]1CCCCN1C(=O)[C@H](Cc1c[nH]c2cc(Cl)ccc12)NC(=O)CCl` [164B8] (ClAc-[Trp(6-Cl)]-[Pip]-Trp-NHMe), the “DC50 of Pin1 degradation” value in series [1] is on record as “sub-micromolar”. Moreover, the “ΔTm (°C)” value in series [2] is −9.55 ± 0.19 °C. This compound showed an EC50 in series [3] of 8.4 µM. In addition, the “Stability half-life, Acq (aqueous buffer)” value in series [4] was over 5 h.

A word on the EC50: it is the concentration that produces a half-maximal response. Low values mean greater potency, high ones weaker potency.

For the origin of these results see paper PMC12657321, “Pre-clinical evaluation of a potent and effective Pin1-degrading agent in pancreatic cancer” (Molecular Therapy Oncology, 2025).
